The source of these data is PubChem BioAssay (NCI).

Some test systems named below: KM20L2 colon; XF 498 CNS; RXF-631 renal; SNB-78 CNS.
Common to all, as to test: inhibition of tumour cell growth, NCI panel, 48 h

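These data come from cells grown in 96-well plates and exposed to compound for 48 hours at five concentrations. The concentration for full growth arrest is given as TGI.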 Bounds are passed on as bounds.

Take `CSc1nc(Cl)c(Br)c(Sc2nc(N)nc3nc[nH]c23)n1`: the TGI came out at 18.8 µM in the experiment on KM20L2 colon and 30.1 µM in the experiment with XF 498 CNS.
The like results for `CCOC(=O)C12CCC(=O)C=C1[C@@H](C)C(=O)CC2` (stereo not given in full) were, in that order, more than 100 µM and more than 100 µM.
For `CC(C)(C)N1C(C(=O)c2ccccc2)C1c1ccccc1` (stereo not given), the TGI in the experiment with RXF-631 renal and in the experiment with SNB-78 CNS was more than 100 µM throughout.
On to `N#CN=C(N)NC(=O)/C=C/C=C/c1ccc(Cl)cc1`, for which the TGI with KM20L2 colon and with SNB-78 CNS was more than 100 µM throughout.
As to `CC(=O)OC(C)C1C2=C(C(=O)CC1(C)O)C(=O)c1c(ccc(-c3ccc4c(c3O)C(=O)C3=C(C4=O)C(C(C)OC(C)=O)C(C)(O)CC3=O)c1O)C2=O` (stereo not given), the TGI was 4.59 µM in the experiment on KM20L2 colon and 9.63 µM in the experiment on SNB-78 CNS.
Turning to `COc1ccc(C[C@H](N)C(=O)NC2C(CO)OC(n3cnc4c(N(C)C)ncnc43)C2O)cc1` (stereo not given in full), the results for the TGI with SNB-78 CNS and in the experiment on XF 498 CNS were 0.758 µM and 0.166 µM, respectively.
As for `NC(=O)C(N)=O`, the TGI with KM20L2 colon, with SNB-78 CNS and in the experiment on XF 498 CNS was more than 100 µM each time.
